Test [1] has as its target T1, PD-L1 (Homo sapiens, UniProt Q9NZQ7). In words: biochemical. The settings on record: read-out: DSF (°C). Details: gene CD274; ectodomain, PD-L1-long (amino acids 18–239); Differential scanning fluorimetry, melting temperature shift of PD-L1 ectodomain (PD-L1-long). The procedure:
Fragments were screened in both techniques as singletons. […] The fragments were tested at a final concentration of 0.1 mM. […] DSF hits were defined as fragments, resulting in an increase or decrease in melting point of PD-L1 by at least 0.5 °C. […] Having the library in hand, we carried out screening using differential scanning fluorimetry and 1D NMR techniques. Previously, the fragment-based approach with a large library of compounds (>13 000) was tested on the PD-L1 V1 domain.[33] […] Therefore, instead of using a large fragment library, we assembled a focused library of fragments containing the biphenyl core extracted from known inhibitors. The obtained fragments were decorated with different substituents to test how these variations will affect the binding of biphenyl. The expression and purification protocol relate to work on PD-L1-short published earlier by us. Briefly, Escherichia coli strain BL21 (DE3) was transformed with a pET-21b plasmid carrying the PD-L1-long gene (amino acids 18–239). The bacteria were cultured in LB at 37 °C until OD600 nm of 0.8 when the recombinant protein production was induced with 1 mM IPTG. The protein expression was carried out at 37 °C for 5 h. Next, bacteria cells were harvested, and the pellet was frozen at −20 °C. […] Inclusion bodies were collected by centrifugation, suspended in 1× PBS, and then sonicated to finally collect them again by centrifugation. Then, the inclusion bodies were washed twice with 50 mM Tris-HCl, pH 8.0, containing 200 mM NaCl, 10 mM EDTA, 10 mM 2- mercaptoethanol, and 0.5% Triton X-100, followed by a single wash with the same buffer without Triton X-100.

Test [2] addresses T1, PD-L1. In words: 1H-15N HMQC NMR, w-AIDA-NMR KD, 1H NMR. In kind it is binding. Details: gene CD274; ectodomain, PD-L1-long (amino acids 18–239); PD-L1-short in 1H-15N HMQC.
Test [3] has as its target T1, PD-L1. Description: w-AIDA-NMR KD, 1H-15N HMQC NMR, 1H NMR, DSF. In kind it is binding. The arrangement: gene CD274; ectodomain, PD-L1-long (amino acids 18–239); PD-L1-short in 1H-15N HMQC.
For test [4], the target named is T1, PD-L1. Description: 1H NMR; KD stated (data not shown). In kind it is binding. Details: gene CD274; ectodomain, PD-L1-long (amino acids 18–239). The settings on record: cited from earlier work.
The target of test [5] is T1, PD-L1. In words: biochemical. The settings on record: read-out: DSF (°C). The arrangement: gene CD274. The procedure:
Fragments were screened in both techniques as singletons. […] The fragments were tested at a final concentration of 0.1 mM. […] DSF hits were defined as fragments, resulting in an increase or decrease in melting point of PD-L1 by at least 0.5 °C. […] Having the library in hand, we carried out screening using differential scanning fluorimetry and 1D NMR techniques. Previously, the fragment-based approach with a large library of compounds (>13 000) was tested on the PD-L1 V1 domain.[33] […] Therefore, instead of using a large fragment library, we assembled a focused library of fragments containing the biphenyl core extracted from known inhibitors. The obtained fragments were decorated with different substituents to test how these variations will affect the binding of biphenyl. The expression and purification protocol relate to work on PD-L1-short published earlier by us. Briefly, Escherichia coli strain BL21 (DE3) was transformed with a pET-21b plasmid carrying the PD-L1-long gene (amino acids 18–239). The bacteria were cultured in LB at 37 °C until OD600 nm of 0.8 when the recombinant protein production was induced with 1 mM IPTG. The protein expression was carried out at 37 °C for 5 h. Next, bacteria cells were harvested, and the pellet was frozen at −20 °C. […]

Like-named read-outs stand apart in the source and are kept apart here.

T1 sequence (Q9NZQ7 18-239): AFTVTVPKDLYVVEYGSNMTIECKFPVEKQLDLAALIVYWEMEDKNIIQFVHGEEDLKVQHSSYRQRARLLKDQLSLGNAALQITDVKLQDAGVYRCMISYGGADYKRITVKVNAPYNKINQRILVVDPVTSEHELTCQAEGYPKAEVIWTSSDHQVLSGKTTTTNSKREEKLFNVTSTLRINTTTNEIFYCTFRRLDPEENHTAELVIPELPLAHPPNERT

Take `Cc1c(CO)cccc1-c1cccc(CO)c1Br` [TAH3]: on PD-L1 [1], the ΔTm at 100 µM was found to be 0.3 °C. For orientation: Kd means the equilibrium constant for the complex coming apart. In the case of `OCc1cccc(-c2ccc3c(c2)OCCO3)c1Cl` [TAH4], the ΔTm at 100 µM at PD-L1 [1] stood at 0.5 °C. For the same compound, at PD-L1 [2], the Kd is around 40 mM. On to `Nc1c(Br)cccc1-c1ccc2c(c1)OCCO2` [TAH59], for which, at PD-L1 [1], the ΔTm at 100 µM came out at 0.3 °C.

As for `COc1cccc(-c2cccc(O)c2)c1` [TAH14], the ΔTm at 100 µM on PD-L1 [1] came to 0.5 °C. For `Oc1cccc(-c2cccc(Br)c2)c1` [TAH11], the ΔTm at 100 µM on PD-L1 [1] came to 0.1 °C. For the compound `Cc1c(/C=C/C#N)cccc1-c1ccc2c(c1)OCCO2` [TAH38], the ΔTm at 100 µM at PD-L1 [1] was 0.9 °C. Regarding `Cc1c(N)cccc1-c1ccc2c(c1)OCCO2` [TAH16], the ΔTm at 100 µM at PD-L1 [1] was 0.5 °C. With `Nc1c(CO)cccc1-c1ccc2c(c1)OCCO2` [TAH6], the ΔTm at 100 µM at PD-L1 [1] was found to be 0.3 °C. On the same count and under the same terms, next, `Cc1c(-c2cccc([N+](=O)[O-])c2C)cccc1[N+](=O)[O-]` [TAH34]: 0.3 °C; `COC(=O)c1cccc(-c2ccccc2)c1Br` [TAH9]: 0.5 °C; `Nc1c(C(=O)O)cccc1-c1ccccc1` [TAH7]: 0.3 °C. Regarding `O=C(O)c1cccc(-c2ccccc2)c1Br` [TAH40], on PD-L1 [1], the ΔTm at 100 µM is 0.3 °C. `Cc1cc(Br)cc(-c2ccc3c(c2)OCCO3)c1` [TAH60]: the ΔTm at 100 µM on PD-L1 [1] came out at 0.3 °C. The same measure, in the same setting: for `Cc1c(N)cccc1-c1ccccn1` [TAH28] the value was 0.3 °C; for `Cc1c(-c2ccc3c(c2)OCCO3)cccc1N1CCCCC1=O` [TAH17], 0.3 °C. For the compound `Oc1cccc(-c2cccc(F)c2)c1` [TAH41], the ΔTm at 100 µM at PD-L1 [1] amounted to 1.1 °C. Still for that read-out and setting: for `Nc1c(-c2ccc3c(c2)OCCO3)cccc1-c1ccc2c(c1)OCCO2` [TAH46] the value was 0.5 °C; for `Cc1c(-c2ccc(CO)cc2)cccc1-c1ccc(CO)cc1` [TAH50], 0.3 °C; for `CNc1cccc(-c2ccc3c(c2)OCCO3)c1` [TAH56], 0.1 °C. On the same count and under the same terms, next, `Cc1c(CO)cccc1-c1cccc2c1OCCN2C` [TAH61]: -1.1 °C; `Cc1c(N)cccc1-c1ccc(C#N)cc1` [TAH29]: 0.1 °C.

In the case of `COC(=O)c1cccc(-c2ccccc2)c1N` [TAH8], on PD-L1 [1], the ΔTm at 100 µM was 0.3 °C. `OCc1cccc(-c2cccnc2)c1Cl` [TAH5]: the ΔTm at 100 µM on PD-L1 [1] stood at 0.3 °C. Same read-out and setting: for `Nc1c(CO)cccc1-c1ccncc1` [TAH57] the value was 0.1 °C. `Cc1c(N)cccc1-c1cccc(N)c1C` [TAH35] displayed a Kd on PD-L1 [3] of around 20 mM. In addition, the ΔTm at 100 µM at PD-L1 [1] is -1.2 °C.

On to `COC(=O)c1cncc(-c2cccc(CO)c2C)c1` [TAH2], for which, on PD-L1 [1], the ΔTm at 100 µM was 0.1 °C. Take `Cc1ccc(-c2ccc3c(c2)OCCO3)c(N)c1` [TAH53]: the ΔTm at 100 µM at PD-L1 [1] was determined as 0.7 °C. On the same count and under the same terms, next, `Cc1cccc(N)c1-c1ccc2c(c1)OCCO2` [TAH55]: 0.3 °C. For the compound `CN1CCOc2cc(C#N)ccc21` [STD4], the Kd at PD-L1 [4] is 2.21 mM.

Take `O=C1CCc2cc(-c3ccc4c(c3)OCCO4)ccc21` [TAH30]: at PD-L1 [1], the ΔTm at 100 µM was 0.1 °C. On the same count and under the same terms, next, `Cc1c(N)cccc1-c1ccccc1` [TAH39]: 0.3 °C. The same measure, in the same setting: next, `Nc1c(Br)cccc1-c1ccc(CO)cc1` [TAH44]: 0.5 °C; `Cc1c(C#N)cccc1-c1cccc(C#N)c1C` [TAH37]: 0.1 °C. For `Cc1c(COc2cc(OCc3cccc(C#N)c3)c(CN3C[C@H](O)C[C@@H]3C(=O)O)cc2Cl)cccc1-c1ccc2c(c1)OCCO2` [BMS-1166], the ΔTm at 100 µM on PD-L1 [5] stood at 2.7 °C.

As for `COc1ccc(-c2cccc(CO)c2N)cc1` [TAH58], the ΔTm at 100 µM at PD-L1 [1] was found to be 0.1 °C.
